Assay results reported in US20260001889A1, “COMPOSITIONS USEFUL FOR MODULATING SPLICING” (Skyhawk Therapeutics, Inc., priority 2022, published 2026).

How the values were obtained:
ATXN3-HiBiT protein = assay: ATXN3 Total Protein Assay (Kelly-ATXN3-HiBiT luminescence); type: cell-based; conditions: Kelly-ATXN3-HiBiT cells, 48 h after addition of compound
Method in brief: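 Endogenous ATXN3-HiBiT protein in knock-in Kelly neuroblastoma cells measured by lytic HiBiT luminescence 48 h post-compound (added 24 h after seeding 2000 cells/well). Values are fold changes relative to DMSO, with viability from a parallel CellTiter-Glo plate.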

[1] = test system: ATXN3 transcripts containing exon 4; assay: ATXN3 Quantitative Splicing Assay (qPCR, E4E5 primers/probe); type: cell-based; conditions: Homo sapiens, SK-N-MC cells, compounds for 24 h
Method in brief: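 Exon 4-containing ATXN3 transcripts are quantified by TaqMan qPCR (E4E5 primers/probe) on cell-lysate cDNA, with total ATXN3 from the E8E9 set. Source cells: human neuroblastoma SK-N-MC, exposed for 24 h to compound at 30 μM down to 0.6 nM.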

total ATXN3 protein = assay: ATXN3 Total Protein Assay (Mesoscale Discovery, SK-N-MC cells); type: cell-based, Human; conditions: incubation for 48 hours, MSD assay
Method in brief: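 Readout: MSD electrochemiluminescence immunoassay of lysates, calibrated with recombinant ATXN3 and using mouse/rabbit anti-ATXN3 antibody pair. Cells (SK-N-MC, human) were exposed for 48 h to compound doses between 30 μM and 0.6 nM.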

EC50 (ATXN3-HiBiT protein) [nM] | IC50 [1] [nM] | IC50 (total ATXN3 protein) [nM] | SMILES
10000 to 40000 | 10000 to 40000 | 5000 to 10000 | C[C@H](F)[C@H](N)Cc1oc2c(NCc3c(F)cccc3F)cc(Cl)nc2c1Br [Compound 153, 2-[(2R,3S)-2-amino-3-fluorobutyl]-3-bromo-5-chloro-7-{[(2,6-difluorophenyl)methyl]amino}-1-oxa-4-azaindene]
0.01 to 100 | 0.01 to 100 | 0.01 to 100 | N[C@@H](CCOC(F)F)Cc1oc2c(NCc3cccs3)cc(Cl)nc2c1Br [Compound 154, (S)-2-(2-amino-4-(difluoromethoxy)butyl)-3-bromo-5-chloro-N-(thiophen-2-ylmethyl)furo[3,2-b]pyridin-7-amine]
0.01 to 100 | 0.01 to 100 | 0.01 to 100 | [2H]C([2H])([2H])OC[C@H](N)Cc1oc2c(NCc3cccs3)cc(Cl)nc2c1Br [Compound 157, 2-[(R)-2-amino-3-(2H3)methoxypropyl]-3-bromo-5-chloro-7-thenylamino-1-oxa-4-azaindene]
101 to 500 | 501 to 5000 | 101 to 500 | CC[C@H](N)Cc1oc2c(NCc3cccs3)cc(Cl)nc2c1Br [Compound 169, 2-[(S)-2-aminobutyl]-3-bromo-5-chloro-7-thenylamino-1-oxa-4-azaindene]
501 to 5000 | 501 to 5000 | 501 to 5000 | C#Cc1cc(NCc2cccs2)c2oc(C[C@@H](N)C3CC(F)(F)C3)c(C#C)c2n1 [Compound 178, 2-[(R)-2-amino-2-(3,3-difluorocyclobutyl)ethyl]-3,5-diethynyl-7-thenylamino-1-oxa-4-azaindene]
101 to 500 | 101 to 500 | 101 to 500 | C#Cc1c(C[C@@H](N)C2CC2)oc2c(NCc3cccs3)cc(Cl)nc12 [Compound 180, 2-[(R)-2-amino-2-cyclopropylethyl]-5-chloro-3-ethynyl-7-thenylamino-1-oxa-4-azaindene]
501 to 5000 | 501 to 5000 | 501 to 5000 | C#Cc1cc(NCc2cccs2)c2oc(C[C@@H](N)C3CC3)c(C#C)c2n1 [Compound 181, 2-[(R)-2-amino-2-cyclopropylethyl]-3,5-diethynyl-7-thenylamino-1-oxa-4-azaindene]
0.01 to 100 | 101 to 500 | 101 to 500 | N[C@@H](COC(F)F)Cc1oc2c(NCc3cccs3)cc(Cl)nc2c1Cl [Compound 188, 2-[(R)-2-amino-3-difluoromethoxypropyl]-3,5-dichloro-7-thenylamino-1-oxa-4-azaindene]
101 to 500 | 101 to 500 | 101 to 500 | C[C@H](N)C(F)(F)c1oc2c(NCc3cccs3)cc(Cl)nc2c1Cl [Compound 189, 2-[(S)-2-amino-1,1-difluoropropyl]-3,5-dichloro-7-thenylamino-1-oxa-4-azaindene]
501 to 5000 | 501 to 5000 | 501 to 5000 | N[C@@H](CO)C(F)(F)c1oc2c(NCc3cccs3)cc(Cl)nc2c1Cl [Compound 190, (S)-2-amino-3-(3,5-dichloro-7-thenylamino-1-oxa-4-aza-2-indenyl)-3,3-difluoro-1-propanol]
101 to 500 | 101 to 500 | 101 to 500 | N[C@@H](CO)C(F)(F)c1oc2c(NCc3cccs3)cc(Cl)nc2c1Br [Compound 192, (S)-2-amino-3-(3-bromo-5-chloro-7-thenylamino-1-oxa-4-aza-2-indenyl)-3,3-difluoro-1-propanol]
501 to 5000 | 501 to 5000 | 501 to 5000 | COC[C@H](N)C(F)(F)c1oc2c(NCc3cccs3)cc(Cl)nc2c1Br [Compound 193, 2-[(S)-2-amino-1,1-difluoro-3-methoxypropyl]-3-bromo-5-chloro-7-thenylamino-1-oxa-4-azaindene]
0.01 to 100 | 0.01 to 100 | 0.01 to 100 | C#Cc1c(C[C@@H](N)COC(F)F)oc2c(NCc3cccs3)cc(Cl)nc12 [Compound 196, 2-[(R)-2-amino-3-difluoromethoxypropyl]-5-chloro-3-ethynyl-7-thenylamino-1-oxa-4-azaindene]
501 to 5000 | 501 to 5000 | 501 to 5000 | C[C@H](O)Cc1oc2c(NCc3cccs3)cc(Cl)nc2c1Br [Compound 213, (S)-1-(3-bromo-5-chloro-7-thenylamino-1-oxa-4-aza-2-indenyl)-2-propanol]
101 to 500 | 101 to 500 | 101 to 500 | N[C@@H](CCOC(F)F)Cc1oc2c(NCc3nccs3)cc(Cl)nc2c1Br [Compound 216, 2-[(S)-2-amino-4-difluoromethoxybutyl]-3-bromo-5-chloro-7-{[(1,3-thiazol-2-yl)methyl]amino}-1-oxa-4-azaindene]
0.01 to 100 | 101 to 500 | 0.01 to 100 | [2H]C([2H])(Nc1cc(Cl)nc2c(Br)c(C[C@@H](N)CCOC(F)F)oc12)c1cccs1 [Compound 222, 2-[(S)-2-amino-4-difluoromethoxybutyl]-3-bromo-5-chloro-7-{[(2-thienyl)(^2H2)methyl]amino}-1-oxa-4-azaindene]
501 to 5000 | 501 to 5000 | 501 to 5000 | CC(C)(N)Cc1oc2c(NCc3cccs3)cc(Cl)nc2c1Br [Compound 226, 2-(2-amino-2-methylpropyl)-3-bromo-5-chloro-7-thenylamino-1-oxa-4-azaindene]
501 to 5000 | 501 to 5000 | 501 to 5000 | NC1(Cc2oc3c(NCc4cccs4)cc(Cl)nc3c2Br)CC1 [Compound 227, 2-[(1-aminocyclopropyl)methyl]-3-bromo-5-chloro-N-(thiophen-2-ylmethyl)furo[3,2-b]pyridin-7-amine]
10000 to 40000 | 10000 to 40000 | 5000 to 10000 | C[C@H](F)[C@H](N)Cc1oc2c(NCc3cccs3)cc(Cl)nc2c1C#N [Compound 237, 2-[(2R,3S)-2-amino-3-fluorobutyl]-5-chloro-7-[(thiophen-2-ylmethyl)amino]furo[3,2-b]pyridine-3-carbonitrile]
101 to 500 | 101 to 500 | 101 to 500 | C[C@H](N)C(F)(F)c1oc2c(NCc3ccco3)cc(Cl)nc2c1Cl [Compound 239, 2-[(S)-2-amino-1,1-difluoropropyl]-3,5-dichloro-7-(furfurylamino)-1-oxa-4-azaindene]
501 to 5000 | 501 to 5000 | 501 to 5000 | C[C@H](F)[C@H](N)Cc1oc2c(NCc3cccs3)cc(Cl)nc2c1C1CC1 [Compound 240, 2-[(2R,3S)-2-amino-3-fluorobutyl]-5-chloro-3-cyclopropyl-7-thenylamino-1-oxa-4-azaindene]
101 to 500 | 101 to 500 | 101 to 500 | N[C@H](Cc1oc2c(NCc3cccs3)cc(Cl)nc2c1Br)C(F)F [Compound 242, 2-[(R)-2-amino-3,3-difluoropropyl]-3-bromo-5-chloro-7-thenylamino-1-oxa-4-azaindene]
501 to 5000 | 501 to 5000 | 101 to 500 | N[C@H](Cc1oc2c(NCc3ccco3)cc(Cl)nc2c1Br)C(F)F [Compound 243, 2-[(R)-2-amino-3,3-difluoropropyl]-3-bromo-5-chloro-7-(furfurylamino)-1-oxa-4-azaindene]

SMILES | EC50 (ATXN3-HiBiT protein) [nM] | IC50 [1] [nM] | IC50 (total ATXN3 protein) [nM]
CC#Cc1cc(NCc2cccs2)c2oc(C[C@H](C)N)c(Br)c2n1 [Compound 160, 2-[(S)-2-aminopropyl]-3-bromo-5-(1-propynyl)-7-thenylamino-1-oxa-4-azaindene] | 101 to 500 | 501 to 5000 | 101 to 500
C#Cc1cc(NCc2cccs2)c2oc(C[C@H](C)N)c(C#C)c2n1 [Compound 162, 2-[(S)-2-aminopropyl]-3,5-diethynyl-7-thenylamino-1-oxa-4-azaindene] | 101 to 500 | 0.01 to 100 | 0.01 to 100
C=Cc1cc(NCc2cccs2)c2oc(C[C@H](C)N)c(Br)c2n1 [Compound 164, 2-[(S)-2-aminopropyl]-3-bromo-7-thenylamino-5-vinyl-1-oxa-4-azaindene] | 501 to 5000 | 5000 to 10000 | 5000 to 10000
C[C@H](N)Cc1oc2c(NCc3cccs3)cc(C(=O)O)nc2c1Br [Compound 167, 2-[(2S)-2-aminopropyl]-3-bromo-7-[(thiophen-2-ylmethyl)amino]furo[3,2-b]pyridine-5-carboxylic acid] | 10000 to 40000 | 10000 to 40000 | 10000 to 40000
C=Cc1c(C[C@H](C)N)oc2c(NCc3cccs3)cc(Cl)nc12 [Compound 194, 2-[(S)-2-aminopropyl]-5-chloro-7-thenylamino-3-vinyl-1-oxa-4-azaindene] | 101 to 500 | 501 to 5000 | 501 to 5000
[2H]C([2H])(Nc1cc(Cl)nc2c(Br)c(C[C@H](C)N)oc12)c1cccs1 [Compound 221, 2-[(S)-2-aminopropyl]-3-bromo-5-chloro-7-{[(2-thienyl)(^2H2)methyl]amino}-1-oxa-4-azaindene] | 0.01 to 100 | 0.01 to 100 | 0.01 to 100
C[C@H](N)Cc1oc2c(NCc3ccco3)cc(Cl)nc2c1C#N [Compound 238, 2-[(S)-2-aminopropyl]-5-chloro-7-(furfurylamino)-1-oxa-4-aza-3-indenecarbonitrile] | 10000 to 40000 | 10000 to 40000 | 10000 to 40000
C=C(C)c1c(C[C@H](C)N)oc2c(NCc3cccs3)cc(Cl)nc12 [Compound 252, 2-[(S)-2-aminopropyl]-5-chloro-3-isopropenyl-7-thenylamino-1-oxa-4-azaindene] | 501 to 5000 | 10000 to 40000 | 5000 to 10000
